“Also recorded” adds a separate entry of the source.
Target: BoNT/A LC (Clostridium botulinum, UniProt P0DPI0)
Assay type: biochemical

BoNT/A LC, sequence (P0DPI0 3-448, added parts left off): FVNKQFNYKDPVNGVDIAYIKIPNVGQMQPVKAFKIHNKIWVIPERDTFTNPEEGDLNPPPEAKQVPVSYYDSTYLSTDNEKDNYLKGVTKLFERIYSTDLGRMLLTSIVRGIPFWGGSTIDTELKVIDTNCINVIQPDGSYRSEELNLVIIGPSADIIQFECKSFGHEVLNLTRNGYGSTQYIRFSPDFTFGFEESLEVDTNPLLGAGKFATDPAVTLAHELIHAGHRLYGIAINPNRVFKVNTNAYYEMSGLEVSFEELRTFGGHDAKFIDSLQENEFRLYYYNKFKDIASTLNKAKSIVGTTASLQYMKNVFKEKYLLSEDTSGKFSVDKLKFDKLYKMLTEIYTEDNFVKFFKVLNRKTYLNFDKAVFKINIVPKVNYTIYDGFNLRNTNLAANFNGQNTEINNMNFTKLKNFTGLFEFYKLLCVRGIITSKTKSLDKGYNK

Structure (SMILES) | effect on truncation and fragmentation of the LC
O=C(O)CN(CCN(CC(=O)O)CC(=O)O)CC(=O)O [EDTA] | failed to protect; also recorded: little effect on proteolysis
c1ccc(CN(CCN(Cc2ccccn2)Cc2ccccn2)Cc2ccccn2)nc1 [TPEN] | largely protected; also recorded: significantly reduced the rate of conversion of IA to IB
